Read-outs that look alike come from different tables or passages of the source. Some results are limits rather than exact numbers.

As a reminder, the inhibition is the change of the read-out against control, counted positive when it falls. The IC50 is the point on the concentration scale where inhibition reaches its midpoint.

Assay [1] concerns the target T1, aSMase (Rattus norvegicus, UniProt F7ETC0).
T1 construct: Crude preparations containing aSMase or nSMase were made from stripped rat brains; from tissue; host or cells: rat brain
T1 sequence (F7ETC0 1-626): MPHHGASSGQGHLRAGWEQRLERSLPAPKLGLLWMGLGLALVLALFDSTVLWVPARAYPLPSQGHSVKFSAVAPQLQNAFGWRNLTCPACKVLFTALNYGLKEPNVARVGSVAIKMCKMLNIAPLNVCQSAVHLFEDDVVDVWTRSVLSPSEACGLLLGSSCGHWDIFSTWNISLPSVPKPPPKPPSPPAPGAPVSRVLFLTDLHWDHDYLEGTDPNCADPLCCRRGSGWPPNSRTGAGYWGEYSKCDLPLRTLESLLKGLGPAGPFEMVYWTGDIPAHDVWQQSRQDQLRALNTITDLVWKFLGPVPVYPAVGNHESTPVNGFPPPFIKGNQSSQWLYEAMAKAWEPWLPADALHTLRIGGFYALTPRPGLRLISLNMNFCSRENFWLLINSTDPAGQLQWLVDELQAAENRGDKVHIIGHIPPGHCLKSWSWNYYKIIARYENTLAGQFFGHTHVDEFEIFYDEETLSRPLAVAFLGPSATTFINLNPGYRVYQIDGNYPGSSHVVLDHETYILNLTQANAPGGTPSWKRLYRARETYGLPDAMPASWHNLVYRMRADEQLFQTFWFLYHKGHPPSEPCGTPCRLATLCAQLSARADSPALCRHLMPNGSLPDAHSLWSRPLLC
The experiment in a line: fluorescent aSMase assay with HMU-PC substrate. It is filed as biochemical. The following applies: for IC50: read-out: IC50 inhibition of aSMase. Here is the method: Enzyme assays: Crude preparations containing aSMase or nSMase were made from stripped rat brains, as described before. […] The fluorescent aSMase assay was performed in a 384-well-plate using the HMU-PC (6-Hexadecanoylamino-4-methylumbelliferyl-phosphorylcholine) substrate. Reaction mixtures consisted of 13.3 μL HMU-PC, 13.3 μL reaction-buffer (100 mM NaOAc, pH 5.2, 0.2% (w/v) Na—TC, […], 0.2% (v/v) Triton X-100) and 13.3 μL enzyme preparation. Inhibitors were added in various concentrations and the reactions were incubated for 3 hours at 37° C. in a plate reader (FLUOstar OPTIMA, BMG labtech). The fluorescence of HMU (6-Hexadecanoylamino-4-methylumbelliferone) was measured (excitation 380 nm, emission 460 nm) in real time. Assays using the radio-labelled sphingomyelin gave the same results.

Assay [2] relates to α-galactosidase A (α-Gal A). Particulars: sub-inhibitory intracellular concentrations; cited from earlier work.
Assay [3] deals with isolated, ventilated and perfused rat lungs. Particulars: 10 μM; cited from earlier work.
Setting [4] is: read-out: Inhibition [%] at 20 μM (aSMase, initial bisphosphonate collection).
Where [5] appears, read: read-out: Inhibition [%] at 20 μM (aSMase, initial phosphonate collection).

Turning to `NCCCCCC(O)(P(=O)(O)O)P(=O)(O)O` [Compound 6], in assay [1] (setting [4]), the inhibition at 20 µM is 54%.

On to `CN(C)C(P(=O)(O)O)P(=O)(O)O` [Compound 14], for which the inhibition at 20 µM in assay [1] (setting [4]) turned out to be 24%.

With `CCCCCCCCCC(OP(=O)(OC)OC)P(=O)(OC)OC` (centres unmarked) [Compound 16, Decyl-1-dimethylphosphate-1-dimethylphosphohonate], in assay [1], the “activity towards aSMase” value is “totally inactive” and the IC50 was > 100 µM.

Turning to `OC[C@H]1NC[C@H](O)[C@@H](O)[C@H]1O` [DGJ, 1-deoxy-galactonojirimycin], in assay [2], the “stimulation of α-Gal A in cells” value is “seven- to eight-fold”.

For `CCCCP(=O)(O)O` [Compound 2], in assay [1] (setting [5]), the inhibition at 20 µM worked out at 2%.

Take `O=P(O)(O)CN(CCN(CP(=O)(O)O)CP(=O)(O)O)CCN(CP(=O)(O)O)CP(=O)(O)O` [Compound 5]: the inhibition at 20 µM in assay [1] (setting [5]) was -5%.

Turning to `CCCCNC(P(=O)(O)O)P(=O)(O)O` [Compound 9], the inhibition at 20 µM in assay [1] (setting [4]) turned out to be 76%.

As for `CC(NCC(=O)O)(P(=O)(O)O)P(=O)(O)O` [Compound 8], in assay [1] (setting [4]), the inhibition at 20 µM was determined as 62%.

For the compound `CCCCCCCC(N)(P(=O)(O)O)P(=O)(O)O` [Compound 7b], in assay [1], the “aSMase inhibitory potency relative to PtdIns-3,5P2” value is listed as “about one order of magnitude more potent than PtdIns-3,5P2” and the IC50 stood at 0.04 ± 0.01 µM. Moreover, the inhibition at 20 µM in assay [1] (setting [4]) was determined as 93%.

For the compound `CN(C)CCCN1c2ccccc2CCc2ccccc21` [imipramine], the “attenuation of PAF-induced oedema formation” value in assay [3] was “attenuated but not completely prevented oedema formation”.

Turning to `C=CCN(CC=C)C(P(=O)(O)O)P(=O)(O)O` [Compound 11], in assay [1] (setting [4]), the inhibition at 20 µM turned out to be 32%.

Consider `O=P(O)(O)C(N(CO)CO)P(=O)(O)O` [Compound 13], for which the inhibition at 20 µM in assay [1] (setting [4]) turned out to be 36%.

Turning to `CCCCCCCCCC(OP(=O)(O)O)P(=O)(O)O` (centres unmarked) [Compound 17, Decyl-1,1-phosphate phosphonate], in assay [1], the “activity towards aSMase” value is recorded as “as active as its bisphosphonate analogue 15b” and the IC50 came to 0.35 ± 0.06 µM.

Take `NC(CP(=O)(O)O)P(=O)(O)O` (centres unmarked) [Compound 3]: the inhibition at 20 µM in assay [1] (setting [5]) turned out to be 47%.

On to `CCCCCC(N)(P(=O)(O)O)P(=O)(O)O` [Compound 7a], for which the IC50 in assay [1] is 4.66 ± 1.07 µM. Moreover, the inhibition at 20 µM in assay [1] (setting [4]) is 92%.

As to `CC(C)CN(CC(C)C)C(P(=O)(O)O)P(=O)(O)O` [Compound 12], the inhibition at 20 µM in assay [1] (setting [4]) worked out at 2%.

As to `O=P(O)(O)C(O)(Cn1ccnc1)P(=O)(O)O` [Compound 20, zoledronic acid, reference compound], the IC50 in assay [1] turned out to be 5.08 ± 0.74 µM.

On to `O=P(O)(O)CN(CP(=O)(O)O)CP(=O)(O)O` [Compound 4], for which, in assay [1] (setting [5]), the inhibition at 20 µM was found to be 0%.

As for `CCCCCCCCCC(N(C)C)(P(=O)(O)O)P(=O)(O)O` [Compound 19b, 1-dimethylaminodecyl-1,1-bisphosphonicacid], the IC50 in assay [1] came to 0.18 ± 0.03 µM.

For the compound `CCCCCC(N(C)C)(P(=O)(O)O)P(=O)(O)O` [Compound 19a], the IC50 in assay [1] amounted to 9.5 ± 4 µM.

Regarding `O=P(O)(O)C(Nc1ccccc1)P(=O)(O)O` [Compound 10], the inhibition at 20 µM in assay [1] (setting [4]) is 8%.

(Values after patent US20120178720A1, “Bisphosphonates as Inhibitors of Acid Sphingomyelinase” (priority 2009, published 2012).)
